Laboratory results as given in BindingDB's records for doi:10.1016/j.ejmech.2021.113381 (University of Texas Medical Branch, 2021).
Where a name gives a salt, the structure may show the parent alone.

Test: Inhibition of ASM (unknown origin)-mediated KRAS mislocalization from plasma membrane

SMILES: CC(NCCC(c1ccccc1)c1ccccc1)c1ccccc1 (stereo unspecified) [FENDILINE HYDROCHLORIDE]
- IC50: 5.6 µM
